Measurements taken from patent US20060084697A1, “Pi3k antagonists as radiosensitizers” (priority 2002, published 2006).

Legend:
[1] = test system: Akt; experiment: Western immunoblot of radiation-induced Akt phosphorylation in endothelial cells; assay type: cell-based; conditions: for radiation-induced activation of Akt: irradiated vascular endothelium, summary statement
Method: Broad spectrum RTK inhibitors were tested for their abilities to attenuate radiation-induced phosphorylation of Akt. SU6668, a tyrosine kinase inhibitor of VEGFR, PDGFR, FGFR, and c-Kit, was added to endothelial cells prior to irradiation. Western immunoblots using phospho-specific antibodies to phosphorylated Akt (P-Akt) were prepared.
(§1) The role of RTKs in radiation-induced activation of the Akt signaling pathway was examined by studying a panel of tyrosine kinase inhibitors including PDGF receptor antagonists in primary culture endothelial cells. PDGF receptor antagonists including SU6668, SU11248, and STI571, attenuated radiation-induced phosphorylation of both Akt and Erk. […] Similar efficacy in blocking Erk1/2 phosphorylation in irradiated endothelial cells was found.

[2] = test system: Akt; experiment: Western blot of radiation-induced Akt phosphorylation in HUVEC; assay type: cell-based, human
Text: HUVEC cells were obtained from Clonetics and were maintained in EBM-2 medium supplemented with EGM™-2MV SINGLEQUOTS® (Bio-Whittaker, Inc., Walkersville, Md., United States of America). An Eldorado-8 Cobalt-60 teletherapy unit (Atomic Energy of Canada Limited, Mississauga, Ontario, Canada) was used to irradiate endothelial cell cultures at a dose rate of 0.84 Gy per minute. Delivered doses ranging from 0 to 12 Gy were verified by use of thermoluminescence detectors.
In order to determine if Akt is phosphorylated in response to irradiation, cultured HUVEC cells were serum starved for 4 hours, exposed to irradiation, and the phosphorylation of Akt was examined in cell extracts by Western blotting. Total cellular protein was extracted after radiation treatment as follows. Cells were counted and then washed with iced-cold PBS twice before the addition of lysis buffer (M-PER™ mammalian protein extraction reagent; Pierce Chemical Company, Rockford, Ill., United States of America; or 20 mM Tris, 150 mM NaCl, 1 mM EDTA, 1% Triton X-100, 2.5 mM sodium pyrophosphate, 1 mM phenylmethylsulphonyl fluoride (PMSF), and […] Leupeptin (Roche Molecular Biochemicals, Indianapolis, Ind., United States of America)). Protein concentrations were quantified using the Biorad method (Bradford, 1976). 50 μg protein was loaded into each well of an 8% sodium dodecyl […]-polyacrylamide gel electrophoresis (SDS-PAGE) gel and separated by electrophoresis. The proteins were subsequently transferred onto 0.45 μm nitrocellulose membranes. Membranes were blocked by incubation for 2 hours at room temperature in phosphate buffered saline-Triton (PBST: 0.9% NaCl, 0.3% Triton X-100, pH 7.4) containing 10% nonfat dry milk.
The presence of Akt protein on the membrane was determined as follows. The membranes were incubated with a 1:1000 dilution of rabbit antibody directed against either phosphorylated (Ser473) or non-phosphorylated human Akt overnight at 4° C. Rabbit antibodies were obtained from Cell Signaling Technology, Beverly, Mass., United States of America. The blots were then washed with PBST to remove unbound rabbit antibodies. The washed blots were then incubated for 1 hour at room temperature with a donkey anti-rabbit IgG secondary antibody (Amersham Biosciences, Piscataway, N.J., United States of America) diluted 1:1000 in PBST. The blots were again washed with PBST to remove unbound donkey antibodies. The presences of both phosphorylated and non-phosphorylated human Akt were determined by chemiluminescent detection of donkey anti-rabbit/rabbit anti-human Akt complexes using the ECL™ detection system (Amersham Biosciences) according to the manufacturer's protocol, followed by autoradiography. […]

[3] = test system: Erk1/2; experiment: Radiation-induced Erk phosphorylation in endothelial cells; assay type: cell-based; conditions: for radiation-induced phosphorylation of Erk: primary culture endothelial cells (Example 16)
Method: Phosphorylation of MEK and Erk proteins was also investigated. Erk1/2 was activated following a single 3 Gy dose of irradiation. Erk was phosphorylated within 15 minutes, which resolved within 60 minutes. SU6668 is a broad spectrum inhibitor of split kinase domain RTKs, including Flk-1, Flt-1, PDGFR, fibroblast growth factor receptor (FGFR), and c-Kit (Mendel et al, 2003).
as §1

[4] = test system: HUVEC cells; experiment: Clonogenic survival analysis of HUVEC; assay type: cell-based, human; conditions: HUVEC treated with SU11248 prior to irradiation; p<0.05
Method: The ability of PI3K antagonist to suppress the clonogenic potential of HUVEC cells treated with radiation was assayed by clonogenic survival analysis. The ability of HUVEC cells treated with LY294002 30 minutes prior to irradiation to form colonies was compared to that of HUVEC cells treated with either radiation or LY294002 alone, and also to that of untreated HUVEC cells. […] Briefly, groups of three HUVEC culture plates were treated at each of four radiation dose levels: 2, 4, 6, and 8 Gy, either with or without prior treatment with PI3K antagonists as described in Example 2. After treatment with radiation and/or antagonists, cells were trypsinized, counted by hemocytometer, and subcultured into fresh medium. After 14 days, the cells were fixed with cold methanol and stained with 1% methylene blue. Colonies with greater than 50 cells were counted and the surviving fraction was determined.

[5] = test system: tumors; experiment: Power Doppler tumor blood flow, SU11248 and radiation; assay type: in vivo; conditions: p<0.053
Text: To determine whether prolonged growth delay correlated with reduction in tumor blood flow, amplitude modulated Power Doppler was used to monitor blood flow. Reduced blood flow in tumors treated with SU11248 and radiation correlated with improved tumor growth delay.

[6] = test system: HUVECs; experiment: Apoptotic nuclei in HUVEC, SU11248 and 6 Gy; assay type: cell-based, human; conditions: 24 hours
Method: To determine whether broad spectrum RTK inhibition enhances the cytotoxic effects of radiation on vascular endothelium, SU11248 was added 30 minutes prior to irradiation. HUVECs were treated with vehicle control, and either 100 nM SU11248 orvehicle combined with 6 Gy. […] Untreated control cells show 2% apoptotic nuclei as compared to 7 and 8% after treatment with SU11248 or radiation, respectively (p>0.1). […] To determine whether enhanced apoptotic response in endothelial cells treated with SU11248 results in reduced clonogenic cell survival, HUVEC were subcultured and colony formation was quantified.

[7] = test system: tumor vasculature; experiment: Intravital tumor vascular window, vascular length density, SU11248; assay type: in vivo, mice
Method: Growth factors produced by tumors could enhance the viability of tumor vascular endothelium. To determine whether SU11248 enhances radiation-induced destruction of tumor vasculature, SU11248 was administered to mice prior to irradiation with 3 Gy. Tumor vascular linear density was measured by use of intravital tumor vascular window. […] Five mice were treated in each of the treatment groups, and the vascular length density after treatment was quantified. Mean vascular length densities over four days are shown as a bar graph.

[8] = test system: LLC hind limb tumors; experiment: Tumor growth delay, LLC hind limb tumors; assay type: in vivo, mice
Method: (§2) Destruction of tumor vasculature results in ischemia, which could reduce radiosensitivity of tumors. To determine whether SU11248 enhances tumor growth delay in irradiated tumors, mice bearing LLC and GL261 hind limb tumors were treated with intraperitoneal injection of 40 mg/kg SU11248 or control vehicle 30 minutes prior to each 3 Gy dose of radiation for a total of seven administrations. Both the inhibitor and radiation were discontinued after day 8. Time to doubling of LLC tumor size was 5, 6, 8 and 16 days for vehicle, SU11248, vehicle+21 Gy, and SU11248+21 Gy, respectively.

[9] = test system: GL261 hind limb tumors; experiment: Tumor growth delay, GL261 hind limb tumors, SU11248; assay type: in vivo, mice; conditions: SU11248 prior to daily 3 Gy fractions, p<0.05
Method: as §2

[10] = test system: tumors; experiment: Maintenance SU11248 after radiation, tumor growth delay; assay type: in vivo
Method: Upon the discontinuation of therapy, tumors rapidly regrow. To determine whether maintenance of SU11248 beyond the completion of radiation improved growth delay, this RTK inhibitor was administered twice daily continuously in groups treated with radiation alone or SU11248 and radiation. Beginning after day 8, three groups (drug alone, radiation+vehicle, and combined therapy) were maintained with twice daily intraperitoneal administrations of 20 mg/kg SU11248 for an additional 7 days. Maintenance treatment was discontinued after day 17, and subsequently resumed after four days of drug holiday.

[11] = test system: PDGFRβ; experiment: Phospho-PDGFRβ immunohistochemistry of GL261 tumors; assay type: in vivo, C57BL6 mice; conditions: administered one hour prior to 3 Gy
Text: To determine to the level of phosphorylation of PDGF receptor, GL261 mouse tumor models were sectioned and stained. A phospho-specific antibody to PDGFRβ Tyr751 (Cell Signaling Technology, Beverly, Mass., United States of America) was used. Tumors produced by injecting GL261 murine glioma cells into the hind limb of C57BL6 mice were stained for phospho-PDGFRβ and visualized using immunohistochemistry. Phospho-PDGFRβ staining was graded as 2+ relative to staining in negative controls.
To determine whether cytotoxic therapy alters PDGFRβ phosphorylation, the tumor was irradiated (3 Gy) and snap frozen following irradiation. […] Positive staining for phosphorylated PDGFR was found in endothelium and tumor stroma.
Western immunoblots were performed to verify radiation induced an increase in phosphorylation of PDGFRβ. Protein extracted from irradiated HUVEC had increased phosphorylation of PDGFRβ.

[12] = test system: tumor endothelium; experiment: TUNEL and vWF co-staining of tumor sections; assay type: in vivo
Text: To determine whether SU11248 interacts with radiation through the induction of apoptosis in tumor endothelium, TUNEL staining of tumor sections was utilized. Tumor sections were co-stained for the endothelial marker von Willebrand factor (vWF) and TUNEL.

[13] = test system: HUVEC cells; experiment: Apoptotic nuclei in HUVEC, H&E staining; assay type: cell-based, human; conditions: wortmannin 4 nM or LY294002 2 μM, 24 hours
Method: To determine whether PI3K antagonists enhance the activities of intrinsic cell death mechanisms induced by irradiation, apoptosis in HUVEC cells was studied following PI3K inhibition. HUVEC cells were treated with wortmannin (4 nM) or with LY294002 (2 μM) as described in Example 2. Cells were treated 30 minutes later with 3 Gy of ionizing radiation. Cultures were stained 24 hours later with hematoxylin and eosin (H&E) to reveal apoptotic nuclei. Stained cells were then examined by light microscopy. For each treatment group, four high power fields (40× objective) were examined, and both the number of cells with apoptotic nuclei and the total number of cells were determined. From these numbers, the percentage of apoptotic cells for each group was calculated.

[14] = primary culture endothelial cells (Example 16)
[15] = added to endothelial cells prior to irradiation (Example 15)

O=c1c(-c2ccc(O)cc2)coc2cc(O)cc(O)c12 [Genistein, 4′,5,7-trihydroxyisoflavone]
radiation-induced activation of Akt [1]: attenuates

CCCCCCCCCCCCCC(=O)N[C@H](C)[C@@H](O)c1ccccc1 [MAPP]
Akt phosphorylation in response to 3 Gy irradiation ([2]; antagonists added to HUVEC in culture (Example 18)): did not attenuate

Cc1ccc(NC(=O)c2ccc(CN3CCN(C)CC3)cc2)cc1Nc1nccc(-c2cccnc2)n1 [STI571]
radiation-induced phosphorylation of Akt [1, 14]: attenuated | radiation-induced phosphorylation of Erk [3]: attenuated

Cc1cc(C)c(/C=C2\C(=O)Nc3ccccc32)[nH]1 [SU5416]
radiation-induced phosphorylation of Akt [1, 15]: did not attenuate

Cc1[nH]c(C=C2C(=O)Nc3ccccc32)c(C)c1CCC(=O)O [SU6668, 3-[2,4-dimethyl-5-(2-oxo-1,2-dihydro-indol-3-ylidenemethyl)-1H-pyrrol-3-yl]-propionic acid]
radiation-induced phosphorylation of Akt [1, 15]: blocked | radiation-induced activation of Akt [1]: attenuate | radiation-induced phosphorylation of Akt [1, 14]: attenuated | Erk 1/2 phosphorylation ([3]; added 30 minutes prior to irradiation, 3 Gy, did not entirely eliminate activation): attenuated | radiation-induced phosphorylation of Erk [3]: attenuated

CCN(CC)CCNC(=O)c1c(C)[nH]c(/C=C2\C(=O)Nc3ccc(F)cc32)c1C [SU11248]
radiation-induced activation of Akt [1]: attenuate | radiation-induced phosphorylation of Akt [1, 14]: attenuated | radiation-induced phosphorylation of Erk [3]: attenuated | clonogenic survival compared to radiation alone [4]: significant reduction | tumor blood flow compared to radiation alone [5]: approached significant reduction | endothelial cells with apoptotic nuclei ([6]; 100 nM SU11248 30 minutes prior to 6 Gy): 21% | endothelial cells with apoptotic nuclei ([6]; 100 nM SU11248 alone, untreated 2%): 7% | vascular length density, % of that at 0 hour ([7]; SU11248 alone): 84% | vascular length density, % of that at 0 hours ([7]; SU11248 followed by 3 Gy, within 72 hours, p<0.01): 8% | time to doubling of LLC tumor size ([8]; 40 mg/kg i.p. 30 minutes prior to each 3 Gy dose, 21 Gy total, vehicle+21 Gy 8 days): 16 days | time to doubling of LLC tumor size ([8]; 40 mg/kg i.p., seven administrations, no radiation, vehicle 5 days): 6 days | tumor growth delay compared to either agent alone ([8]; LLC, SU11248 prior to daily 3 Gy fractions, p<0.05): significant increase | tumor growth delay compared to either agent alone [9]: significant increase | growth to 4-fold that of day 0 tumors ([10]; maintenance 20 mg/kg i.p. twice daily for 7 days after day 8, p<0.05 in all groups): significantly delays | tumor growth after re-initiation of SU11248 ([10]; re-initiation at day 21 after four days of drug holiday): second phase of tumor growth delay | radiation-induced PDGFR phosphorylation [11]: markedly attenuated | apoptotic cells in tumor sections ([12]; SU11248 alone): could not be detected | apoptotic cells in tumor sections ([12]; radiation and SU11248, 24 hours following treatment, no apoptotic tumor cells): TUNEL positive endothelial cells

COC[C@H]1OC(=O)c2coc3c2[C@@]1(C)C1=C(C3=O)[C@@H]2CCC(=O)[C@@]2(C)C[C@H]1OC(C)=O [wortmannin, Wortmannin]
total Akt levels ([2]; HUVEC, wortmannin 4 nM or LY294002 2 μM): no effect | apoptotic nuclei, % of cells ([13]; HUVEC pretreated 30 minutes before 3 Gy): 17% | apoptotic cells ([13]; unirradiated HUVEC): 3%
